Key:
[1] = Solubility in cosmetic oils; assay type: physicochemical; conditions: in contrast to the target product
[2] = Examination of the crystallisation in emulsion; assay type: physicochemical; conditions: with respect to the entire mass of the cosmetic formulation (0.025% by weight)
Excerpt: According to the indications in the following Table 1, two cosmetic formulations were produced as emulsions [E(I) and E (II)]. The product from example 1a contained pure 2-benzylidene-3,3-dimethyl-5,6-dimethoxy-1-indanone and was used in the emulsion E(I). For the emulsion E(II), 2-benzylidene-3,3-dimethyl-5,6-dimethoxy-1-indanone from example 1a was used, but it was contaminated with benzyl-3,3-dimethyl-5,6-dimethoxy-1-indanone in such a manner that a 5% by weight contamination was present, with respect to the total mass of the contaminated product.
The emulsions were covered and left to stand at ambient temperature for 3 days. Subsequently, the emulsions were examined under a microscope. Emulsion E(I) had no crystals. In emulsion E(II), crystal seeds having a size of from 4 to 7 μm were able to be observed.

proportion of by-product that initiates the formation of crystallisation seeds in the cosmetic formulation [2]: 250 ppm
Structure (SMILES): COc1cc2c(cc1OC)C(C)(C)C(Cc1ccccc1)C2=O (centres unmarked) [2-benzyl-3,3-dimethyl-5,6-dimethoxy-1-indanone]
solubility in cosmetic oils [1]: cannot be readily dissolved in cosmetic oils

Source: patent publication US9676691B2, “Method for producing indanone derivatives” (SYMRISE AG, priority 2011, dated 2017)
